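How tested: cells in 96-well plates exposed to compound for 48 hours at five concentrations. GI50 marks 50% less growth. TGI: concentration producing complete growth inhibition.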
How the values were obtained:
Assay in all cases: inhibition of tumour cell growth, NCI panel, 48 h
COLO 205 colon = system: COLO 205 colon
HCT-15 colon = system: HCT-15 colon
HOP-62 NSCLC = system: HOP-62 NSCLC
M14 melanoma = system: M14 melanoma
OVCAR-8 ovarian = system: OVCAR-8 ovarian
UACC-62 melanoma = system: UACC-62 melanoma
BT-549 breast = system: BT-549 breast
MDA-MB-435 = system: MDA-MB-435
T-47D breast = system: T-47D breast
CCRF-CEM leukemia = system: CCRF-CEM leukemia

Structure (SMILES)	TGI (COLO 205 colon)	TGI (HCT-15 colon)	TGI (HOP-62 NSCLC)	TGI (M14 melanoma)	TGI (OVCAR-8 ovarian)	TGI (UACC-62 melanoma)	TGI (BT-549 breast)	TGI (MDA-MB-435)	TGI (T-47D breast)	TGI (CCRF-CEM leukemia)	GI50 (BT-549 breast)	GI50 (CCRF-CEM leukemia)	GI50 (COLO 205 colon)	GI50 (HCT-15 colon)	GI50 (HOP-62 NSCLC)	GI50 (MDA-MB-435)	GI50 (OVCAR-8 ovarian)	GI50 (T-47D breast)	GI50 (UACC-62 melanoma)	GI50 (M14 melanoma)
CC12O[Te]34OC1(C)C(C)(O3)C2(C)O4	31.1 µM	54 µM	36.8 µM	33.7 µM	24.4 µM	87.5 µM														
O=C(O)C(O)c1ccc(F)cc1 (stereo not drawn)		> 100 µM	> 100 µM	> 100 µM	> 100 µM	> 100 µM	> 100 µM	> 100 µM	> 100 µM											
Nc1nc(Cl)cc(NCCCCCCNc2cc(Cl)nc(N)n2)n1	> 100 µM	> 100 µM	> 100 µM	> 100 µM	> 100 µM	97.8 µM				> 100 µM										
NCCn1c2c(c3ccccc3c1=O)C(=O)c1ccccc1-2	3.99 µM	2.32 µM	1.1 µM		1.57 µM	5.69 µM	10.1 µM	2.51 µM	1.28 µM	1.74 µM	2.42 µM	0.33 µM	0.605 µM	0.271 µM	0.369 µM	0.897 µM	0.0915 µM	0.308 µM	0.833 µM	
COc1ccc(-c2conc2-c2ccccc2)cc1	1.42 µM	> 100 µM	> 100 µM	> 100 µM	> 100 µM	> 100 µM	12.8 µM		> 100 µM	> 100 µM	0.94 µM	0.292 µM	0.248 µM	0.099 µM	0.43 µM		0.604 µM	0.329 µM	0.689 µM	0.268 µM
Cc1cc2c(-c3nc4ccccn4c3NC34CC5CC(CC(C5)C3)C4)c(O)c(O)cc2c(O)c1-c1c(C)cc2c(-c3nc4ccccn4c3NC34CC5CC(CC(C5)C3)C4)c(O)c(O)cc2c1O	4.77 µM	> 25 µM	> 25 µM		> 25 µM	1.91 µM	5.96 µM	> 25 µM	2.49 µM	> 25 µM	0.105 µM	0.115 µM	0.626 µM	0.466 µM	0.724 µM	0.552 µM	0.871 µM	0.187 µM	0.521 µM	
CCOc1ccccc1NC(=O)CCC(=O)NN	> 100 µM	> 100 µM	> 100 µM	> 100 µM	> 100 µM	> 100 µM				> 100 µM										
c1cc2ccc1C1NCCCN1CCN1CCCNC1c1ccc(cc1)C1NCCCN1CCN1CCCNC21 (stereo not drawn)	> 100 µM	> 100 µM	> 100 µM	> 100 µM	> 100 µM	> 100 µM				> 100 µM										
O=C(O)C(CS)N=Cc1nc(-c2ccccc2)oc1O (stereo not drawn)	> 100 µM	> 100 µM	> 100 µM	> 100 µM	> 100 µM	> 100 µM				> 100 µM										
CN1C=C(C(N)=O)C2CC(O)[C@@](NC(=O)CS(N)(=O)=O)(C(=O)O)C2C1 (stereo partly drawn)	29.2 µM	66.3 µM	4.27 µM	2.8 µM	18.2 µM	7.02 µM				> 100 µM										

— PubChem BioAssay (NCI)
